Results published in publication PMC3694096, “Development of Novel In Vivo Chemical Probes to Address CNS Protein Kinase Involvement in Synaptic Dysfunction” (PLoS ONE, 2013).
In brackets after ≈: the same amount, converted by molar mass. Like-named read-outs stand apart in the source and are kept apart here.

Experiments:
CDK7/cyclinH/MAT1 = biological target: T1, CDK7/cyclinH/MAT1 (Homo sapiens, UniProt P50613); test: Kinome profiler screen; format: biochemical; settings: at 20,000 nM inhibitor; kinase activity remaining
T1 construct: purchased Millipore KinaseProfiler

EphA2 = biological target: T2, EphA2 (Homo sapiens, UniProt P29317); test: Kinome profiler screen; format: biochemical; settings: at 20,000 nM inhibitor; kinase activity remaining
T2 construct: purchased Millipore KinaseProfiler

TrkA = biological target: T3, TrkA (Homo sapiens, UniProt P04629); test: Kinome profiler screen; format: biochemical
T3 construct: purchased Millipore KinaseProfiler
T3 sequence (P04629 33-796): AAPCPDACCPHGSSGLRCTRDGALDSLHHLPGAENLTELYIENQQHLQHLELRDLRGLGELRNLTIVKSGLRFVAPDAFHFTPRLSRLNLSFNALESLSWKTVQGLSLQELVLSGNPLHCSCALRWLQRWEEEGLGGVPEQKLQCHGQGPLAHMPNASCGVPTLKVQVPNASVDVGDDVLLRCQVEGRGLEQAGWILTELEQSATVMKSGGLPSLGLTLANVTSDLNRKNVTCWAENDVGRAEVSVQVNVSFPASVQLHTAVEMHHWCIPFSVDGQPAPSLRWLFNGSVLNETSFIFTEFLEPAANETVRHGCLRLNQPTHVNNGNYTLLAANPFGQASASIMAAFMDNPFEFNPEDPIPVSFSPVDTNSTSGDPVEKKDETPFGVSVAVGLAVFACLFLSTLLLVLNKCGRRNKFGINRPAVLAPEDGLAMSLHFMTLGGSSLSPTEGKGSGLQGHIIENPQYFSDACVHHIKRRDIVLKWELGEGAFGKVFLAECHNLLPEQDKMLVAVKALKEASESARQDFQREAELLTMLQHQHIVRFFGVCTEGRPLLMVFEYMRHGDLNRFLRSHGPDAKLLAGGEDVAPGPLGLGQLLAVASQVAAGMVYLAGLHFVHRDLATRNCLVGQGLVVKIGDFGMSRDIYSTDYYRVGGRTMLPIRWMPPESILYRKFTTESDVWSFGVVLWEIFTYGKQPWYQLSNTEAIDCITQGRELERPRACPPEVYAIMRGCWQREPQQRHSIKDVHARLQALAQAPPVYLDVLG

PrKX = biological target: T4, PrKX (Homo sapiens, UniProt P51817); test: Kinome profiler screen; format: biochemical; settings: at 20,000 nM inhibitor; kinase activity remaining
T4 construct: purchased Millipore KinaseProfiler

EphA8 = biological target: T5, EphA8 (Homo sapiens, UniProt P29322); test: Kinome profiler screen; format: biochemical; settings: at 20,000 nM inhibitor; kinase activity remaining
T5 construct: purchased Millipore KinaseProfiler

NEK3 = biological target: T6, NEK3 (Homo sapiens, UniProt P51956); test: Kinome profiler screen; format: biochemical; settings: at 20,000 nM inhibitor; kinase activity remaining
T6 construct: purchased Millipore KinaseProfiler

EphB1 = biological target: T7, EphB1 (Homo sapiens, UniProt P54762); test: Kinome profiler screen; format: biochemical
T7 construct: purchased Millipore KinaseProfiler
T7 sequence (P54762 18-984): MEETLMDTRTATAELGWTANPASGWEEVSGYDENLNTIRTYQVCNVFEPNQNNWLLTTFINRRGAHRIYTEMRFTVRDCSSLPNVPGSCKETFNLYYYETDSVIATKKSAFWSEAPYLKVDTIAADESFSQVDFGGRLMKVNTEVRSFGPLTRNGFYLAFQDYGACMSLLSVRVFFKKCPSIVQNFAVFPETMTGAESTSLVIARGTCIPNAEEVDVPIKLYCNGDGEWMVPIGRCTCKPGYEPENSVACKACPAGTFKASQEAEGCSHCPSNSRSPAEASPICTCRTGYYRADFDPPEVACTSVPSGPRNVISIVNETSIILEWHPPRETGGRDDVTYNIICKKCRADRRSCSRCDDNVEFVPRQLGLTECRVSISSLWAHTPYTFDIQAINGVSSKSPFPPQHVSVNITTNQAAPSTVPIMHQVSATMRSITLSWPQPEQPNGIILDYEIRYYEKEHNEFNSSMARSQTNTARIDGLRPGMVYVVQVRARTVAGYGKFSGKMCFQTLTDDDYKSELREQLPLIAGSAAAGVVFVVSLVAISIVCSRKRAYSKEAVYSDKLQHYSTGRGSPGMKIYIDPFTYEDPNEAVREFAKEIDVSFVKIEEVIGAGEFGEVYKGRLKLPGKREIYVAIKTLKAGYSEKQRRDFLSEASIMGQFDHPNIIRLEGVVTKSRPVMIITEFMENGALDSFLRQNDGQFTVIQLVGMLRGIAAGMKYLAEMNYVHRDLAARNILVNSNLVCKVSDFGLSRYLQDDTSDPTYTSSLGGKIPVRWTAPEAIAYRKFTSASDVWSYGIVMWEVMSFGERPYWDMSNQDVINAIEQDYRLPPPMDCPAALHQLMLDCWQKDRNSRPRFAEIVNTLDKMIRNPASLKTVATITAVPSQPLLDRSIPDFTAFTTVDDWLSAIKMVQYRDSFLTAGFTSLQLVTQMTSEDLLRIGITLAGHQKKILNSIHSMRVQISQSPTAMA

Snk = biological target: T8, Snk (Homo sapiens, UniProt Q9NYY3); test: Kinome profiler screen; format: biochemical; settings: at 20,000 nM inhibitor; kinase activity remaining
T8 construct: purchased Millipore KinaseProfiler

EphA4 = biological target: T9, EphA4 (Homo sapiens, UniProt P54764); test: Kinome profiler screen; format: biochemical; settings: at 20,000 nM inhibitor; kinase activity remaining
T9 construct: purchased Millipore KinaseProfiler

ErbB4 = biological target: T10, ErbB4 (Homo sapiens, UniProt Q15303); test: Kinome profiler screen; format: biochemical; settings: at 20,000 nM inhibitor; kinase activity remaining
T10 construct: purchased Millipore KinaseProfiler

BV-2 microglial cells = test: cells; format: cell-based, murine; settings: BV-2 cells
MAPKAP-K2 = biological target: T11, MAPKAP-K2 (Homo sapiens, UniProt P49137); test: Kinome profiler screen; format: biochemical; settings: at 20,000 nM inhibitor; kinase activity remaining
T11 construct: purchased Millipore KinaseProfiler

CSK = biological target: T12, CSK (Homo sapiens, UniProt P41240); test: Kinome profiler screen; format: biochemical; settings: at 20,000 nM inhibitor; kinase activity remaining
T12 construct: purchased Millipore KinaseProfiler

MINK = biological target: T13, MINK (Homo sapiens, UniProt Q8N4C8); test: Kinome profiler screen; format: biochemical; settings: at 20,000 nM inhibitor; kinase activity remaining
T13 construct: purchased Millipore KinaseProfiler
T13 sequence (Q8N4C8 whole entry): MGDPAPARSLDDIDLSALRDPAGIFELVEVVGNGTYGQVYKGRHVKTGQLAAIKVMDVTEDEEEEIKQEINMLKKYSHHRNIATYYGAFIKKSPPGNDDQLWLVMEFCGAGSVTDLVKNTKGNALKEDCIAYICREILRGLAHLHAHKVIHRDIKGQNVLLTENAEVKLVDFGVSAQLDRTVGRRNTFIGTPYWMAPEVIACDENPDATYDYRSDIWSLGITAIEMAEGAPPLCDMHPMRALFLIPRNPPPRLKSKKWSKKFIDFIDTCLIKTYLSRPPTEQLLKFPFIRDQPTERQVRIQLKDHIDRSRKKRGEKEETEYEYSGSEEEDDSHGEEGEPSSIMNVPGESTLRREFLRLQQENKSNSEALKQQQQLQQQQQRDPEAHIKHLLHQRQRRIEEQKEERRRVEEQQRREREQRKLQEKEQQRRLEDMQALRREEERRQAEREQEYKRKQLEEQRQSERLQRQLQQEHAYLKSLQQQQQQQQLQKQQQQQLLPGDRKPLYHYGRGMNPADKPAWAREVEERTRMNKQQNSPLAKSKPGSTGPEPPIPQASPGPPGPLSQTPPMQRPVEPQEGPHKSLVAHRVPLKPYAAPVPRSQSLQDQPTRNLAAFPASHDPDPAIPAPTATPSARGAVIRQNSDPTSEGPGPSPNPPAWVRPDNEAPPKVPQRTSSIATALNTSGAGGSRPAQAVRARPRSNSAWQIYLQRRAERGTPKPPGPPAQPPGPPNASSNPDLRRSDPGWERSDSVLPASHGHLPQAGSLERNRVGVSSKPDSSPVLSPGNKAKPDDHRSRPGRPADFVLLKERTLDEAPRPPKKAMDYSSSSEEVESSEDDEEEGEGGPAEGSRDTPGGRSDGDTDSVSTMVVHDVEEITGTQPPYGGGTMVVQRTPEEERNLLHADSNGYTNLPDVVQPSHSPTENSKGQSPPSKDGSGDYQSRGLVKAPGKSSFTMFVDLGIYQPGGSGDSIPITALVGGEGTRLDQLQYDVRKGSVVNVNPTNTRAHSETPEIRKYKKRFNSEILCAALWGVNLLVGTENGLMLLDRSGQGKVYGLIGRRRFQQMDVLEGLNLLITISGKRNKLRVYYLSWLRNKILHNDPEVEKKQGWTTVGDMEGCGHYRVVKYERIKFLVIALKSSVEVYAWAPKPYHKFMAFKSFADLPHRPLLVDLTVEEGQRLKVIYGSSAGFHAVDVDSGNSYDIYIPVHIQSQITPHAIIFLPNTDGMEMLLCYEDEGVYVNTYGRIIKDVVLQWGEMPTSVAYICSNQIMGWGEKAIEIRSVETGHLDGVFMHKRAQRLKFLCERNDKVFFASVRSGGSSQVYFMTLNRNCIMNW

Mer = biological target: T14, Mer (Homo sapiens, UniProt Q12866); test: Kinome profiler screen; format: biochemical; settings: at 20,000 nM inhibitor; kinase activity remaining
T14 construct: purchased Millipore KinaseProfiler

FGFR3 = biological target: T15, FGFR3 (Homo sapiens, UniProt P22607); test: Kinome profiler screen; format: biochemical; settings: at 20,000 nM inhibitor; kinase activity remaining
T15 construct: purchased Millipore KinaseProfiler

GCK = biological target: T16, GCK (Homo sapiens, UniProt Q12851); test: Kinome profiler screen; format: biochemical; settings: at 20,000 nM inhibitor; kinase activity remaining
T16 construct: purchased Millipore KinaseProfiler

Bmx = biological target: T17, Bmx (Homo sapiens, UniProt P51813); test: Kinome profiler screen; format: biochemical; settings: at 20,000 nM inhibitor; kinase activity remaining
T17 construct: purchased Millipore KinaseProfiler

PKCμ = biological target: T18, PKCμ (Homo sapiens, UniProt Q15139); test: Kinome profiler screen; format: biochemical; settings: at 20,000 nM inhibitor; kinase activity remaining
T18 construct: purchased Millipore KinaseProfiler

PKG1α = biological target: T19, PKG1α (Homo sapiens, UniProt Q13976); test: Kinome profiler screen; format: biochemical; settings: at 20,000 nM inhibitor; kinase activity remaining
T19 construct: purchased Millipore KinaseProfiler

CK2 = biological target: T20, CK2 (Homo sapiens, UniProt P68400); test: Kinome profiler screen; format: biochemical; settings: at 20,000 nM inhibitor; kinase activity remaining
T20 construct: purchased Millipore KinaseProfiler

reference memory = test: 2-day radial arm water maze (RAWM), Aβ42-infused mice; format: in vivo, C57BL/6J mice; settings: 5 mg/Kg i.p.
PASK = biological target: T21, PASK (Homo sapiens, UniProt Q96RG2); test: Kinome profiler screen; format: biochemical; settings: at 20,000 nM inhibitor; kinase activity remaining
T21 construct: purchased Millipore KinaseProfiler

PI3 Kinase (p110δ/p85α) = biological target: T22, PI3 Kinase (p110δ/p85α) (Homo sapiens, UniProt O00329); test: Kinome profiler screen; format: biochemical; settings: at 20,000 nM inhibitor; kinase activity remaining
T22 construct: purchased Millipore KinaseProfiler

Aqueous solubility = format: physicochemical; settings: for solubility at 24 h: 37 °C, water, thermodynamic from solid
Procedure: Aqueous solubility (logS) and chemical stability were determined as previously described. Briefly, solutions for aqueous solubility (log S) determination were made by gravimetric methods using a Sartorius AG (Germany) BP 211 D analytical balance. Dry borosilicate capillary tubes (Büchi, Switzerland) were weighed and various amounts of compound (ranging from 1.2–1.5 mg) or the hydrochloride hydrate form (ranging from 10–20 mg) were added to the tared tubes, then water added to create solutions ranging in concentrations from […]. Tubes containing the samples were mixed to ensure wetting and incubated at 37°C for 24 h. Aliquots were collected from each tube, centrifuged at 12,000 g-min, and analyzed by HPLC. Concentrations were calculated using area under the peak (260 nm) at the appropriate retention time relative to a standard curve obtained from serial dilutions of each purified compound. […]. The co-solvent was methanol, experimental pH range was 1.7–10.0, temperature was 22±2°C, ionic strength was 0.15 M KCl. Five titrations were used to calculate the pKa using the Yasuda-Shedlovsky technique. […].

Abl(Y253F) = biological target: T23, Abl(Y253F) (Homo sapiens, UniProt P00519, Y253F); test: Kinome profiler screen; format: biochemical; settings: at 20,000 nM inhibitor; kinase activity remaining
T23 construct: purchased Millipore KinaseProfiler

CaMKIIβ = biological target: T24, CaMKIIβ (Homo sapiens, UniProt Q13554); test: Kinome profiler screen; format: biochemical; settings: at 20,000 nM inhibitor; kinase activity remaining
T24 construct: purchased Millipore KinaseProfiler

CK1γ1 = biological target: T25, CK1γ1 (Homo sapiens, UniProt Q9HCP0); test: Kinome profiler screen; format: biochemical; settings: at 20,000 nM inhibitor; kinase activity remaining
T25 construct: purchased Millipore KinaseProfiler

CK1γ2 = biological target: T26, CK1γ2 (Homo sapiens, UniProt P78368); test: Kinome profiler screen; format: biochemical; settings: at 20,000 nM inhibitor; kinase activity remaining
T26 construct: purchased Millipore KinaseProfiler

BTK(R28H) = biological target: T27, BTK(R28H) (Homo sapiens, UniProt Q06187, R28H); test: Kinome profiler screen; format: biochemical; settings: at 20,000 nM inhibitor; kinase activity remaining
T27 construct: purchased Millipore KinaseProfiler

MLK1 = biological target: T28, MLK1 (Homo sapiens, UniProt P80192); test: Kinome profiler screen; format: biochemical; settings: at 20,000 nM inhibitor; kinase activity remaining
T28 construct: purchased Millipore KinaseProfiler
T28 sequence (P80192 whole entry): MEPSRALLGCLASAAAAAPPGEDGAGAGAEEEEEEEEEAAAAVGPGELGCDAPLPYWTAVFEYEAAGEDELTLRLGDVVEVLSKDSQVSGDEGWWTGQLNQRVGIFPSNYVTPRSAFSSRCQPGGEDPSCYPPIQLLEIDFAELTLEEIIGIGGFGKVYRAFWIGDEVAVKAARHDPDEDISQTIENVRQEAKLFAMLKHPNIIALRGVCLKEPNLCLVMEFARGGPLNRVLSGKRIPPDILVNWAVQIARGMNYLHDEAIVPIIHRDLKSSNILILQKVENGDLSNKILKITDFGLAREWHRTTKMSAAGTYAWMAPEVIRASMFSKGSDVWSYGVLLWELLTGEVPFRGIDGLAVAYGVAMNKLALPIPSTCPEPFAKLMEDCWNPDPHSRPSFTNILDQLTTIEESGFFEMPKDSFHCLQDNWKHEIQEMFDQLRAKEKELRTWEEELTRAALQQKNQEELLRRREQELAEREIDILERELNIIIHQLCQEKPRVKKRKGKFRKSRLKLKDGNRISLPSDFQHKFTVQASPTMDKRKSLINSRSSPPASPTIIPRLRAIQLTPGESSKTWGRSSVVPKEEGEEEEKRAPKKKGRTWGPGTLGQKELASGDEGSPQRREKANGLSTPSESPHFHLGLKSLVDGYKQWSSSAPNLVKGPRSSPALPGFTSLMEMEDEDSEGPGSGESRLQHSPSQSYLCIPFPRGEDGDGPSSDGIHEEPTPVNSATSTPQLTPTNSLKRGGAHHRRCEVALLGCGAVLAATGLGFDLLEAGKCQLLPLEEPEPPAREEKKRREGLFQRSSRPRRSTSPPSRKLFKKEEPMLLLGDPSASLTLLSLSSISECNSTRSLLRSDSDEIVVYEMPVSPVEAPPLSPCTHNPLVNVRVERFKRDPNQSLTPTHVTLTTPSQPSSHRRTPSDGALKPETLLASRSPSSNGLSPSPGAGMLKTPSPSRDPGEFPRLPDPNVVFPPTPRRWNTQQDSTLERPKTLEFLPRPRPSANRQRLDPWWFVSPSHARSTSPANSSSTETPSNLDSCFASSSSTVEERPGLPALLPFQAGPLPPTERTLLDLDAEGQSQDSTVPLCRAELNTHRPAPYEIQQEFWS

GRK5 = biological target: T29, GRK5 (Homo sapiens, UniProt P34947); test: Kinome profiler screen; format: biochemical
T29 construct: purchased Millipore KinaseProfiler

SIK = biological target: T30, SIK (Homo sapiens, UniProt P57059); test: Kinome profiler screen; format: biochemical; settings: at 20,000 nM inhibitor; kinase activity remaining
T30 construct: purchased Millipore KinaseProfiler
T30 sequence (P57059 whole entry): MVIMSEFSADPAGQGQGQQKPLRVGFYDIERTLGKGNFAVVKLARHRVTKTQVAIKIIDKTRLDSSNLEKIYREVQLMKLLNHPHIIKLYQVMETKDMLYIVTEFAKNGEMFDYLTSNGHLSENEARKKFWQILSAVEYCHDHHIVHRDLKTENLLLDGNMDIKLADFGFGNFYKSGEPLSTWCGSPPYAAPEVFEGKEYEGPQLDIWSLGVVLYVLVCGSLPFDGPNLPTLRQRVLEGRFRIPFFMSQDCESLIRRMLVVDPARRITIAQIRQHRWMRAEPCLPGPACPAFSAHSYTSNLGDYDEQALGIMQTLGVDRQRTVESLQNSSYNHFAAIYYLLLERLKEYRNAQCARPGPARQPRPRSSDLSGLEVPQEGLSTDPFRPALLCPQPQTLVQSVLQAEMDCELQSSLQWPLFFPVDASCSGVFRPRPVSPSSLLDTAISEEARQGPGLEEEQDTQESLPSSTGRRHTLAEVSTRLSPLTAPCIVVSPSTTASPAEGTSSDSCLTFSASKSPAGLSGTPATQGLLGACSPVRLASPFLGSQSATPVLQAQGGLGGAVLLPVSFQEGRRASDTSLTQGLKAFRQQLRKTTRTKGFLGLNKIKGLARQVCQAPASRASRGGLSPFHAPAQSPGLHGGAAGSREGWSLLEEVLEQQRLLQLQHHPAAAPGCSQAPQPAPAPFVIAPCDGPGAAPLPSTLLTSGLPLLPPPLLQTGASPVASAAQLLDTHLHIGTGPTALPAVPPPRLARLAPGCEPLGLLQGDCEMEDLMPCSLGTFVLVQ

MRCKα = biological target: T31, MRCKα (Homo sapiens, UniProt Q5VT25); test: Kinome profiler screen; format: biochemical; settings: at 20,000 nM inhibitor; kinase activity remaining
T31 construct: purchased Millipore KinaseProfiler

ROCK-I = biological target: T32, ROCK-I (Homo sapiens, UniProt Q13464); test: Kinome profiler screen; format: biochemical; settings: at 20,000 nM inhibitor; kinase activity remaining
T32 construct: purchased Millipore KinaseProfiler

SRPK2 = biological target: T33, SRPK2 (Homo sapiens, UniProt P78362); test: Kinome profiler screen; format: biochemical; settings: at 20,000 nM inhibitor; kinase activity remaining
T33 construct: purchased Millipore KinaseProfiler

cSRC = biological target: T34, cSRC (Homo sapiens, UniProt P12931); test: Kinome profiler screen; format: biochemical; settings: at 20,000 nM inhibitor; kinase activity remaining
T34 construct: purchased Millipore KinaseProfiler

GSK3α = biological target: T35, GSK3α (Homo sapiens, UniProt P49840); test: Kinome profiler screen; format: biochemical; settings: at 20,000 nM inhibitor; kinase activity remaining
T35 construct: purchased Millipore KinaseProfiler

[1] = at 20,000 nM inhibitor, kinase activity remaining, read-out: % Activity

Compound: CN(C)c1cc(-c2ccncc2)c(-c2ccc3ccccc3c2)nn1 [MW108, N, N-dimethyl-6-(naphthalen-2-yl)-5-(pyridin-4-yl)pyridazin-3-amine]
- activity at 20 µM (CDK7/cyclinH/MAT1): 98%
- activity at 20 µM (EphA2): 83%
- activity at 20 µM (TrkA): 91%
- activity at 20 µM (PrKX): 109%
- activity at 20 µM (EphA8): 95%
- activity at 20 µM (NEK3): 98%
- activity at 20 µM (EphB1): 92%
- activity at 20 µM (Snk): 98%
- activity at 20 µM (EphA4): 97%
- activity at 20 µM (ErbB4): 52%
- LPS-induced IL-1β production (BV-2 microglial cells): inhibited LPS-induced IL-1β production in a concentration-dependent manner
- IC50 (BV-2 microglial cells; Mus musculus, 100 ng/ml LPS, 18 hrs, read-out: IC50, inhibition of IL-1β overproduction): 610 ± 20 nM
- activity at 20 µM (MAPKAP-K2): 103%
- activity at 20 µM (CSK): 93%
- activity at 20 µM (MINK): 48%
- activity at 20 µM (Mer): 98%
- activity at 20 µM (FGFR3): 86%
- activity at 20 µM (GCK): 101%
- activity at 20 µM (Bmx): 87%
- activity at 20 µM (PKCμ): 70%
- activity at 20 µM (PKG1α): 93%
- activity at 20 µM (CK2): 106%
- reference memory deficit, RAWM (reference memory): ameliorated the reference memory deficit
- activity at 20 µM (PASK): 88%
- activity at 20 µM (PI3 Kinase (p110δ/p85α)): 100%
- solubility at 24 h (Aqueous solubility; Aqueous Solubility (37 °C)): 0.058 mM (≈ 0.0189 mg/mL)
- solubility at 24 h (Aqueous solubility; Aqueous Solubility (37 °C), HCl hydrate): 370 mM (≈ 121 mg/mL)
- Aqueous Solubility (37ºC), HCl hydrate (Aqueous solubility; 24 h): ~400 mM
- activity at 20 µM (Abl(Y253F)): 98%
- activity at 20 µM (CaMKIIβ): 96%
- activity at 20 µM (CK1γ1): 101%
- activity at 20 µM (CK1γ2): 91%
- activity at 20 µM (BTK(R28H)): 101%
- activity at 20 µM (MLK1): 98%
- activity at 20 µM (GRK5): 110%
- activity at 20 µM (SIK): 91%
- activity at 20 µM (MRCKα): 107%
- activity at 20 µM (ROCK-I): 89%
- activity at 20 µM (SRPK2): 95%
- activity at 20 µM (cSRC): 125%
- activity at 20 µM (GSK3α): 90%

Compound: CN(C)c1cc(-c2ccncc2)c(-c2cccc3ccccc23)nn1 [MW181, N,N-dimethyl-6-(naphthalen-1-yl)-5-(pyridin-4-yl)pyridazin-3-amine]
- activity at 20 µM (CDK7/cyclinH/MAT1): 99%
- activity at 20 µM (EphA2): 91%
- activity at 20 µM (TrkA; [1]): 109%
- activity at 20 µM (PrKX): 108%
- activity at 20 µM (EphA8): 91%
- activity at 20 µM (NEK3): 116%
- activity at 20 µM (EphB1; [1]): 100%
- activity at 20 µM (Snk): 99%
- activity at 20 µM (EphA4): 110%
- activity at 20 µM (ErbB4): 78%
- LPS-induced IL-1β production (BV-2 microglial cells): inhibited LPS-induced IL-1β production in a concentration-dependent manner
- activity at 20 µM (MAPKAP-K2): 103%
- activity at 20 µM (CSK): 111%
- activity at 20 µM (MINK): 54%
- activity at 20 µM (Mer): 100%
- activity at 20 µM (FGFR3): 118%
- activity at 20 µM (GCK): 101%
- activity at 20 µM (Bmx): 108%
- activity at 20 µM (PKCμ): 70%
- activity at 20 µM (PKG1α): 97%
- activity at 20 µM (CK2): 104%
- reference memory deficit, RAWM (reference memory): ameliorated the reference memory deficit
- activity at 20 µM (PASK): 97%
- activity at 20 µM (PI3 Kinase (p110δ/p85α)): 101%
- Aqueous Solubility (37ºC), HCl hydrate (Aqueous solubility; hydrochloride hydrate form, 24 h): ~800 mM
- solubility at 24 h (Aqueous solubility; compound (not the salt), 24 h, read-out: Aqueous Solubility (37ºC)): 0.205 mM
- solubility at 24 h (Aqueous solubility; hydrochloride hydrate form, 24 h, read-out: Aqueous Solubility (37ºC), HCl hydrate): 840 mM (≈ 274 mg/mL)
- activity at 20 µM (Abl(Y253F)): 108%
- activity at 20 µM (CaMKIIβ): 108%
- activity at 20 µM (CK1γ1): 101%
- activity at 20 µM (CK1γ2): 96%
- activity at 20 µM (BTK(R28H)): 96%
- activity at 20 µM (MLK1): 95%
- activity at 20 µM (GRK5; [1]): 100%
- activity at 20 µM (SIK): 92%
- activity at 20 µM (MRCKα): 103%
- activity at 20 µM (ROCK-I): 97%
- activity at 20 µM (SRPK2): 109%
- activity at 20 µM (cSRC): 101%
- activity at 20 µM (GSK3α): 95%
